According to US20260355318A1, “MOLECULAR MACHINES FOR TREATMENT OF CANCER, FUNGAL INFECTIONS, OR BACTERIAL INFECTIONS” (priority 2022, published 2026):

Key:
C. albicans [1] = experiment: MIC, visible-light-activated MMs and conventional antifungals, C. albicans; assay type: cell-based, Candida albicans (ATCC 18804)
Experimental: C. albicans cell suspensions were incubated with increasing concentrations of MMs and irradiated with 405-nm light at 292 mW cm^−2 for 5 min (87.6 J cm^−2). The minimum inhibitory concentration (MIC) was defined as the MM concentration resulting in no visible fungal growth after irradiation with 87.6 J cm^−2 of 405-nm light.
(§1) Cell suspensions for susceptibility testing (MMs and conventional antifungals) were prepared per the Clinical & Laboratory Standards Institute (CLSI) guidelines (CLSI, 2017; CLSI, 2008). Before testing, yeasts (C. albicans and S. cerevisiae) were sub-cultured in Sabouraud Dextrose Agar-Emmons Modification (SDAE) plates and grown for 24 h at 30 °C. Five independent colonies from 24-h-old plates were collected and diluted to ~10^4 colony forming units (CFU) per mL in sterile saline (CLSI, 2017). Molds (A. fumigatus and the dermatophytes T. rubrum and M. gypseum) were sub-cultured on SDAE medium and incubated for 7 days at 28 °C. Conidia were recovered by covering the plates with sterile distilled water and scraping the colonies. The suspensions were filtered (8-μm pore size) and diluted in saline to ~10^4 CFU mL^−1 (Santos and Hamdan, 2005).
(§2) After a 30-min incubation in the dark, cell suspensions were transferred to small, sterilized glass beakers, which were then placed in a water bath. Each sample was irradiated with 405-nm light at 292 mW cm^−2 for 5 min, corresponding to a light dose of 87.6 J cm^−2, determined using an S415C thermal power sensor (Thorlabs, Newton, MA, USA). During irradiation, the cell suspensions were agitated with a small metal stirrer. A thermocouple probe (model SC-TT-K-30-36-PP; Omega Engineering, Inc., Stanford, CT, USA) was used to monitor the temperature during irradiation. Irradiated cell suspensions were inoculated in 3-(N-morpholino) propanesulfonic acid (MOPS)-buffered Roswell Park Memorial Institute Medium (RPMI) 1640 (pH 7.0). Tubes were incubated at 30 ° C for 48 h (yeasts) and 28 ° C for 7 days (molds). The antifungal or MM concentration resulting in no visible growth was defined as the minimum inhibitory concentration (MIC) (CLSI, 2017; CLSI, 2008). Similarly prepared cell suspensions were used to determine the MIC of conventional antifungals.

C. albicans [2] = experiment: Time-kill assay, C. albicans; assay type: cell-based, Candida albicans
Experimental: (§3) For yeasts, five independent colonies were collected from 24-h SDAE plates, inoculated into yeast peptone with 2% dextrose (YPD), and grown for 24 h at 30 °C. Cells were then sub-cultured in fresh medium and grown for ~9 h. Afterward, the cells were centrifuged (5,000 ×g, 5 min), washed, and resuspended in phosphate-buffered saline (PBS) to ~10^6 CFU mL^−1. For A. fumigatus, conidia suspensions (~10^4 CFU mL^−1) were prepared in PBS as previously described.
(§4) Amphotericin B (AMB, 4×MIC) controls were prepared likewise, but light was omitted. Aliquots were collected in 1-min increments for up to 10 min, serially diluted in PBS, and plated on SDAE medium. Plates were incubated at 30 ° C for 48 h with confirmation after 72 h (yeasts) or at 28 ° C for 7 days with confirmation after 14 days (A. fumigatus), after which the CFU number was determined. The results were expressed as the logarithm of base 10 of the ratio between the CFU at each time point and the CFU at time 0. The detection limit of the method was ~1 log10 CFU mL^−1.

S. cerevisiae [3] = experiment: Time-kill assay, S. cerevisiae; assay type: cell-based, Saccharomyces cerevisiae; details: 2×MIC, 405-nm light at 292 mW cm^−2
Experimental: as §3, §4

A. fumigatus [4] = experiment: Time-kill assay, A. fumigatus; assay type: cell-based, Aspergillus fumigatus; details: 2×MIC, 405-nm light at 292 mW cm^−2
Experimental: as §3, §4

C. albicans [5] = experiment: Development of resistance / cross-resistance in C. albicans (serial passage, single-step); assay type: cell-based; details: Candida albicans, read-out: MIC of MM in antifungal-resistant C. albicans
Experimental: FIG. 3: Evaluation of the development of resistance to MMs in C. albicans. For the stepwise resistance assessment by serial passage (left), C. albicans cell suspensions were treated with increasing concentrations (0.3125-160 μM) of different MMs (8 mM stock in DMSO) and then irradiated with […] light (87.6 J cm^−2). The irradiated cell suspensions were then inoculated in MOPS-buffered RPMI 1640 (pH 7.0, Sigma, MO, USA), and the tubes were incubated at 30 ° C for 48 h. […] Cells able to grow at 0.5×MIC of each MM were collected by centrifugation (5,000×g, 5 min), resuspended and re-challenged with a range of MM concentrations and irradiated with 405 nm light (87.6 J cm^−2). The procedure was repeated for a total of 20 consecutive cycles. […] Irradiated cells were then inoculated in YPD and incubated at 30 °C. However, MM-resistant colonies could not be recovered even after 14 days of incubation. Created with Biorender.com.
A modified version of the broth microdilution serial passage method was used to assess the development of resistance to visible-light-activated MMs in C. albicans (Kapoor et al., 2019). C. albicans cell suspensions were prepared and irradiated as previously described for the determination of MM MIC. Cells were then inoculated into buffered RPMI 1640 and incubated at 30 ° C for 48 h. Cells able to grow at 0.5×MIC of MM were centrifuged (5,000×g, 5 min), resuspended, rechallenged with different MM concentrations, and irradiated with 405-nm light (87.6 J cm^−2). The procedure was repeated for 20 consecutive cycles. The antifungals AMB, CAS, and FLC were processed similarly, except that light was omitted, and used as controls.

superoxide dismutase = experiment: Superoxide dismutase (SOD) activity; assay type: cell-based, Candida albicans; details: 0.5×MIC, p<0.05
Experimental: (§5) Superoxide dismutase (SOD) activity was determined using a Superoxide Dismutase Assay Kit (Caymanchem, MI, USA) per the distributor's instructions. Lipid peroxidation was determined using a TBARS assay kit (TCA method) (Caymanchem, MI, USA) per the distributor's instructions. SOD activity and MDA levels were normalized by protein content determined by the Pierce assay (Pierce™ BCA Protein Assay Kit, Thermo Fisher Scientific, MA, USA).

C. albicans [6] = experiment: Lipid peroxidation (TBARS, MDA); assay type: cell-based, Candida albicans; details: 2×MIC
Experimental: as §5

[7] = Estimated rotation rate after light activation; details: based on known motors with similar core skeletons
S. cerevisiae [8] = experiment: MIC, MMs and antifungals, S. cerevisiae; assay type: cell-based, Saccharomyces cerevisiae (ATCC 13007); details: broth microdilution
Experimental: as §1, §2

A. fumigatus [9] = experiment: MIC, MMs and antifungals, A. fumigatus; assay type: cell-based, Aspergillus fumigatus (ATCC 1022); details: A. fumigatus, broth microdilution
Experimental: as §1
After a 30-min incubation in the dark, cell suspensions were transferred to small, sterilized glass beakers, which were then placed in a water bath. Each sample was irradiated with 405-nm light at 292 mW cm^−2 for 5 min, corresponding to a light dose of 87.6 J cm^−2, determined using an S415C thermal power sensor (Thorlabs, Newton, MA, USA). During irradiation, the cell suspensions were agitated with a small metal stirrer. […]

[10] = test system: mature C. albicans biofilms; experiment: Biofilm viability (XTT assay); assay type: cell-based, Candida albicans; details: 2×, 4×MIC, vs DMSO, MMs with 87.6 J cm^−2 405-nm light
Experimental: The antibiofilm activity of MMs was investigated using 96-well microtiter plates with flat-bottom wells as a closed static biofilm reactor. This setup is reliable, inexpensive, easy to use and obtain, and requires no additional equipment (Pierce et al., 2010). Two parameters were used to evaluate antibiofilm activity: biofilm biomass and biofilm viability. Biofilm biomass was determined using the crystal violet method (Martins et al, 2010), a simple, inexpensive, and readily accessible method for determining biofilm biomass. However, because crystal violet binds both live and dead cells as well as extracellular polymeric substances, it cannot be used alone to reliably assess antibiofilm activity. To overcome this limitation, the XTT assay was used to evaluate biofilm viability (Nett et al., 2011). […] The resulting formazan can be easily detected by measuring the absorbance at 490 nm, which is proportional to the number of living cells, providing a reliable quantitative measurement of metabolically active cells in biofilms (Taff et al., 2012). […]
Biofilm viability was determined using an XTT cell viability assay kit (Biotium, Hayward, CA, USA) per the manufacturer's instructions. […] Normalized absorbance values were obtained by subtracting the background from the signal.

[11] = test system: mature C. albicans biofilms; experiment: Biofilm biomass (crystal violet); assay type: cell-based, Candida albicans; details: 2×, 4×MIC, vs DMSO, MMs with 87.6 J cm^−2 405-nm light
Experimental: The antibiofilm activity of MMs was investigated using 96-well microtiter plates with flat-bottom wells as a closed static biofilm reactor. This setup is reliable, inexpensive, easy to use and obtain, and requires no additional equipment (Pierce et al., 2010). Two parameters were used to evaluate antibiofilm activity: biofilm biomass and biofilm viability. Biofilm biomass was determined using the crystal violet method (Martins et al, 2010), a simple, inexpensive, and readily accessible method for determining biofilm biomass. However, because crystal violet binds both live and dead cells as well as extracellular polymeric substances, it cannot be used alone to reliably assess antibiofilm activity. To overcome this limitation, the XTT assay was used to evaluate biofilm viability (Nett et al., 2011). This assay is based on the reduction of the tetrazolium salt XTT to formazan by dehydrogenases in the mitochondrial electron transport chain of living cells. The resulting formazan can be easily detected by measuring the absorbance at 490 nm, which is proportional to the number of living cells, providing a reliable quantitative measurement of metabolically active cells in biofilms (Taff et al., 2012). […]
Biofilm biomass was determined by the crystal violet method, as previously described (Martins et al., 2010). […]

[12] = test system: C. albicans plasma membrane; experiment: Plasma membrane fluidity, DPH fluorescence; assay type: cell-based, Candida albicans
Experimental: The effects of MMs on C. albicans membrane dynamics were evaluated using DPH fluorescence (Kim et al., 2009). […] AMB-treated cells were used as controls. Samples were fixed with 0.37% formaldehyde and labeled with 0.6 mM DPH, as previously described (Kim et al., 2009). […] DPH fluorescence of untreated samples minus background was defined as 100% and used to calculate changes in treated samples.

C. albicans [13] = experiment: Influence of BAPTA-AM on MM-induced killing and intracellular calcium; assay type: cell-based, Candida albicans; details: MM 1 2×MIC
Experimental: C. albicans cells were grown as described above and resuspended in HHBS (~10^6 CFU mL^−1). The cation chelator 1,2-bis(2-aminophenoxy) ethane-N,N,N′,N′-tetraacetic acid acetoxymethyl ester (BAPTA-AM) was then added (0.25-1 mM, final concentration) (Li et al., 2020). Unamended cells were used as controls. After a 30-min dark incubation at 30 ° C, the cells were centrifuged (5,000×g, 5 min), washed, and resuspended in HHBS. […] After 30 min, the cells were irradiated and processed as described for the time-kill experiments.

C[C@@H]1Cc2ccc3ccccc3c2/C1=C1\c2ccccc2Sc2cc(NCCN3CCNCC3)ccc21 (mixture of isomers) [MM 7, 9-(2-methyl-2,3-dihydro-1H-cyclopenta[a]naphthalen-1-ylidene)-N-(2-(piperazin-1-yl)ethyl)-9H-thioxanthen-3-amine]
MIC (C. albicans [1]; Candida albicans, read-out: MIC of MM): ≤ 5 µM | time to reduce cell numbers to limit of detection (C. albicans [2]; C. albicans, 2×MIC, 405-nm light at 292 mW cm^−2): 9 min | time to population eradication (S. cerevisiae [3]): 5 min | time to reduce cell numbers to limit of detection (A. fumigatus [4]): 9 min | MIC (C. albicans [5]): 5 µM | superoxide dismutase activity (superoxide dismutase): increased superoxide dismutase activity | lipid peroxidation product levels (C. albicans [6]): increased levels of the lipid peroxidation product malonaldehyde | estimated rotation rate after light activation [7]: 3 MHz

C[C@@H]1[C@H](O)[C@@H](C)/C=C/C=C/C=C/C=C/C=C/C=C/C=C/[C@H](O[C@@H]2O[C@H](C)[C@@H](O)[C@H](N)[C@@H]2O)C[C@@H]2O[C@](O)(C[C@@H](O)C[C@@H](O)[C@H](O)CC[C@@H](O)C[C@@H](O)CC(=O)O[C@H]1C)C[C@H](O)[C@H]2C(=O)O [Amphotericin B (AMB), Amphotericin B]
MIC of antifungal agent (C. albicans [1]; C. albicans, broth microdilution): 1 µg/mL | MIC of antifungal agent (S. cerevisiae [8]): 0.5 µg/mL | MIC of antifungal agent (A. fumigatus [9]): 2 µg/mL | effect on fungal cell number (C. albicans [2]; time-kill, FIG. 1D / FIG. 2, AMB at 4×MIC): non-significant reduction in cell numbers | reduction of biofilm viability [10]: 20% | reduction of biofilm biomass [11]: 6% | DPH fluorescence [12]: reduces DPH fluorescence

CC(=O)OCOC(=O)CN(CC(=O)OCOC(C)=O)c1ccccc1OCCOc1ccccc1N(CC(=O)OCOC(C)=O)CC(=O)OCOC(C)=O [BAPTA-AM, 1,2-bis(2-aminophenoxy) ethane-N,N,N′,N′-tetraacetic acid acetoxymethyl ester]
effect of calcium chelator on MM-induced cell death (C. albicans [13]): Mitigation of MM-induced cell death
